Assay type in all cases: in vitro ADME
Data set [1] deals with liver P450. Description: inhibition of 2,4-diene alkylamide metabolism by co-incubation with a 2-ene alkylamide in human liver microsomes. The conditions noted are these: co-incubation of 3 with 6 at equimolar concentrations, 90 minutes. A general note: Liver microsomes are a subcellular fraction often used to study metabolism.
Description: Compound 3 was present at 20 μM in all experiments while 6 was present at (●) 0, (∘) 0.22, (▪) 2.2, ( ) 5.5, (▴) 9.0 and (Δ) 20 uM. Each point represents the mean for one microsomal preparation examined in duplicate. The deviation was less than 15 for each point.
Incubations (0.5 mL) with tissue fractions contained either the microsomal fraction at 0.1-0.2 mM P450 or the cytosolic fraction at 5 mg/mL protein in 100 mM potassium phosphate (pH 7.4) supplemented with is substrates (synthetic alkylamides 6, 11, 3 and 12 or the alkylamide fraction from the ethanolic liquid as required—see Figure legends for concentrations used) added from ethanolic stocks. Final ethanol concentrations were either 0.70% or 0.96% and were consistent in each assay. Reactions were initiated by the addition of an NADPH-generating system consisting of (final concentrations) 250 mM NADP+, 10 mM glucose-6-phosphate and 0.5 μ/mL glucose-6-phosphate dehydrogenase. Negative controls and cytosolic incubations lacked an NADPH-generating system. Reaction mixtures were incubated at 37° C. with gentle agitation for the duration of each experiment. Reactions were terminated by addition of an equal volume of 100% methanol to a sample aliquot. Diluted samples were then centrifuged at 16000×g for 2 minutes and supernatants stored at −20° C. until analysis by LCMS.
For data set [2], the system named is human liver microsomes. How it is done:
Livers were obtained from organ donors according to procedures is approved by the University of Queensland ethics committees. Samples of human liver were frozen in liquid nitrogen and stored at −70° C. prior to use. Microsomes were prepared according to the method of Guengerich except that microsomes were subjected to a final wash in 10 mM Tris-acetate, 1 mM EDTA and 20% glycerol pH 7.4 (resuspension buffer) to remove residual drugs (e.g. phenytoin—data not shown) present in donor livers.
Incubations (0.5 mL) with tissue fractions contained either the microsomal fraction at […] or the cytosolic fraction at 5 mg/mL protein in 100 mM potassium phosphate (pH 7.4) supplemented with is substrates (synthetic alkylamides 6, 11, 3 and 12 or the alkylamide fraction from the ethanolic liquid as required—see Figure legends for concentrations used) added from ethanolic stocks. Final ethanol concentrations were either 0.70% or 0.96% and were consistent in each assay. Reactions were initiated by the addition of an NADPH-generating system consisting of (final concentrations) […] NADP+, 10 mM glucose-6-phosphate and 0.5 μ/mL glucose-6-phosphate dehydrogenase. Negative controls and cytosolic incubations lacked an NADPH-generating system. Reaction mixtures were incubated at 37° C. with gentle agitation for the duration of each experiment. Reactions were terminated by addition of an equal volume of 100% methanol to a sample aliquot. Diluted samples were then centrifuged at 16000×g for 2 minutes and supernatants stored at −20° C. until analysis by LCMS.
Alkylamide concentrations in samples were determined by LCMS using a gradient HPLC system (Shimadzu LC1OAT) coupled to a quadrupole mass spectrometer (Shimadzu, QP8000a) operating in positive SIM mode with an APCI interface. The mobile phases were a mixture of water and acetonitrile. Alkylamides 6 and 3 were detected using a 65% acetonitrile isocratic run. Alkylamides 11 and 12 were detected using an 85% acetonitrile isocratic run. The alkylamide fraction was analysed using a gradient that increased from 20% to 40% acetonitrile over the first 5 minutes, then to 80% acetonitrile over the following 15 minutes and to 100% over the next 3 minutes followed by a re-equilibration period at 20% acetonitrile prior to the next injection. A similar gradient was used in scan and then SIM (M+1 of 248, 264, 246, 192, 280 and 282) modes to identify metabolites of 3. A C18, 3 m, 100×2.00 mm Phenomenex Luna column was used with a solvent flow rate of 0.3 mL/minute. All alkylamides were linear in the range 0.001-10 mg/mL (R^2>0.9) with a coefficient of variation between 4 and 5.
A number of pure, synthetic alkylamides (6, 11 3 and 12 as shown in FIG. 1) as well as the complex mixture of alkylamides obtained from an ethanolic extract of Echinacea were investigated for their susceptibility to liver P450-mediated degradation in microsomal preparations from four different subjects. The concentration of each substrate remaining at the given time points was quantified with LCMS and rates of substrate depletion were calculated as a percentage of the original concentration. […] From FIG. 3 it can be seen that there was a clear difference in the ability of the liver microsomal P450s to metabolise the synthetic 2-ene and the 2,4-diene alkylamides. […] In contrast, the 2,4-dienes were rapidly metabolised with only 9±2% of the original concentration of 3 and 2±1% of the original concentration of 12 detected after 2 hours. […]

Data set [3] has as its target T1, P450 2A13 (Homo sapiens, UniProt Q16696).
T1 construct: made in house; host or cells: Escherichia coli, bacterial membrane fraction
T1 sequence (Q16696 1-494): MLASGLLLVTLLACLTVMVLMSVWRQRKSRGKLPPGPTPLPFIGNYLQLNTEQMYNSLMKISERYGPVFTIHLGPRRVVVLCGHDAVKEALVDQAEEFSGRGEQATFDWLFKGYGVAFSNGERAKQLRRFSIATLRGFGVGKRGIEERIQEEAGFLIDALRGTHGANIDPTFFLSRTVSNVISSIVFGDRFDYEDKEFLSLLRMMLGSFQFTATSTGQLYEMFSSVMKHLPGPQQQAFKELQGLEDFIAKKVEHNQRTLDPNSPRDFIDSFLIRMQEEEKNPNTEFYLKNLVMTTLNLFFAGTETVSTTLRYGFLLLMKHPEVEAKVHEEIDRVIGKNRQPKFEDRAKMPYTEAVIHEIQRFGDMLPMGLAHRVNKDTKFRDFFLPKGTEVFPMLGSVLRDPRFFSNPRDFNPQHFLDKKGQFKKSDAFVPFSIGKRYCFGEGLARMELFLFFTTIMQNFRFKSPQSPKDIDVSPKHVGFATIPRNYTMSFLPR
Description: metabolism of 3 by recombinant human P450. Particulars: recombinant P450 2A13, preliminary screen.

The structures appear in SMILES notation.

As for `C/C=C\C=C/CC/C=C/C=C/C(=O)NCC(C)C` [alkylamide 3, (2E,4E,8Z,10Z)—N-isobutyldodeca-2,4,8,10-tetraenamide], the “% of the original concentration of 3 detected” value in data set [1] worked out at 83±4%. Besides, the “rate of alkylamide metabolism relative to the rate found for 6” value in data set [2] is reported as “seven fold higher”. For the same molecule, the “% of initial levels still present” value in data set [2] (human, 2 h, pH 7.4) was found to be 66±26%. Also, the “consumption of 3” value in data set [3] is listed as “observed”.
